According to patent US11873298B2, “Compounds and uses thereof” (JANSSEN PHARMACEUTICA NV, priority 2017, dated 2024):
“And” between values parts separate entries of the source, which are not always exact repeats. Equal values may be shown once.

Experiments:
[1] = molecular target: T1, SCD1 (Homo sapiens, UniProt O00767); assay: Growth inhibition of humanized yeast strain expressing SCD1 as sole desaturase; type: cell-based; details: humanized yeast strain expressing SCD1
T1 construct: host or cells: S. cerevisiae ole1Δ strain (W303 pdr1Δ pdr3Δ background), plasmid pRS316 with TDH3 promoter and CYC1 terminator
T1 sequence (O00767 1-359): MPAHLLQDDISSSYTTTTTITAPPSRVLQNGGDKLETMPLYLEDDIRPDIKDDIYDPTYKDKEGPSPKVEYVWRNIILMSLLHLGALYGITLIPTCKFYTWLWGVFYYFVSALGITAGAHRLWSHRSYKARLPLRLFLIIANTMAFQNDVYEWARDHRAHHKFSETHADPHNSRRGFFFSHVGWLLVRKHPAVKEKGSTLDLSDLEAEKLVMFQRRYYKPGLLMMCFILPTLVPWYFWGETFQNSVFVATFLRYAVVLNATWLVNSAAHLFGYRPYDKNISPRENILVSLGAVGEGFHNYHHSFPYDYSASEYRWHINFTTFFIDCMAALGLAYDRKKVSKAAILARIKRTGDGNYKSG
Method in brief: (§1)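 Yeast ole1Δ strain (W303 pdr1Δ pdr3Δ background) carrying plasmid-borne Ole1, SCD1 or SCD5 as sole desaturase was grown in uracil-lacking media, pre-cultured in raffinose for 6 h, then seeded in galactose medium with compound in DMSO. Growth was read as OD600 after 30° C. incubation: 24 h for Ole1, 40 h for SCD1/SCD5.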

[2] = molecular target: T2, SCD5 (Homo sapiens, UniProt Q86SK9); assay: Growth inhibition of humanized yeast strain expressing SCD5 as sole desaturase; type: cell-based; details: humanized yeast strain expressing SCD5
T2 construct: host or cells: S. cerevisiae ole1Δ strain (W303 pdr1Δ pdr3Δ background), plasmid pRS316 with TDH3 promoter and CYC1 terminator
T2 sequence (Q86SK9 1-330): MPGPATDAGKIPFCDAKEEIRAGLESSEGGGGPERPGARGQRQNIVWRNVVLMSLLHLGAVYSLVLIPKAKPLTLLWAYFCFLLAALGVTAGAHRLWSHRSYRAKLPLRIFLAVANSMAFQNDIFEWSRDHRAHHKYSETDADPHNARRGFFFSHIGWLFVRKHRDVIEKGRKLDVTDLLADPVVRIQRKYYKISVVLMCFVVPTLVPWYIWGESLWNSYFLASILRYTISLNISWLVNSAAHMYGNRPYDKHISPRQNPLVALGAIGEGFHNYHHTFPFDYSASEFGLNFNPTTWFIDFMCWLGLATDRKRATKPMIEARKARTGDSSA
Method in brief: as §1

[3] = molecular target: T3, Ole1 (Saccharomyces cerevisiae, UniProt P21147); assay: Growth inhibition of yeast strain expressing Ole1 as sole desaturase; type: cell-based; details: yeast strain expressing Ole1 as sole desaturase
T3 construct: expressed in transfected cells; host or cells: S. cerevisiae ole1Δ strain (W303 pdr1Δ pdr3Δ background), plasmid pRS316 with TDH3 promoter and CYC1 terminator
T3 sequence (P21147 1-510): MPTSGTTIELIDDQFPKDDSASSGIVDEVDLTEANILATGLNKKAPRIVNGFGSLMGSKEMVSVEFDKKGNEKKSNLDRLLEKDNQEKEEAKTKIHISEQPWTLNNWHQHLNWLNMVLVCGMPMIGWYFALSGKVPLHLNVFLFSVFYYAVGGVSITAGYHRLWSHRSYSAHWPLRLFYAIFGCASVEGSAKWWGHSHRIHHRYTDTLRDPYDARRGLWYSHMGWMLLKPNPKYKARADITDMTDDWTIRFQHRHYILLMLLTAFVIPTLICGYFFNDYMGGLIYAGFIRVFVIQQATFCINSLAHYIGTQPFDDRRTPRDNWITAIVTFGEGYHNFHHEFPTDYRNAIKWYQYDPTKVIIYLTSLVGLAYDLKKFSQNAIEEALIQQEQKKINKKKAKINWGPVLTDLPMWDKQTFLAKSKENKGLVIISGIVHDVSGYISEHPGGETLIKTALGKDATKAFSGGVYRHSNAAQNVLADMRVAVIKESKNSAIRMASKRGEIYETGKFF
Method in brief: as §1

[4] = tested on: yeast strains expressing the human α-synuclein; assay: Yeast α-synuclein toxicity rescue assay (OD600 growth); details: 40 h; for EC50: read-out: α-Syn EC50; for Emax: read-out: α-Syn Emax
Text: The induced expression of α-synuclein and ApoE4 confers cytotoxicity, thus enabling the identification of compounds that can restore cell viability. This instantaneous/synchronous induction of α-synuclein and ApoE4 can be achieved due to the following expression control. In glucose-containing media, gene expression from the GAL1 promoter is ‘off’ and actively repressed by additional epigenetic factors. In raffinose, expression is ‘off’, but the promoter not actively repressed. Upon transition to galactose-containing media, the promoter is instantaneously turned ‘on’ to achieve robust and synchronous induction of α-synuclein or ApoE4 expression. This highly regulated induction provides a robust window for the determination of both efficacy (amplitude of protective effect) and potency (concentration of protective effect) of cytoprotective compounds.
Re-suspended compound stocks were subsequently arrayed into 384 well compound plates using automated pipetting. All other wells not receiving stock compound were filled with 10 μL of 100% DMSO using an automated plate filler (Multidrop Combi). An 11 point, 2-fold serial dilution was then performed using the robotic platform. Compound assay plates were covered with foil and stored at −20° C. until use.
Each strain was handled according to standard protocols and cultured in media composed of CSM (complete synthetic media), YNB (yeast nitrogenous base), and a 2% (w/v) carbon source (either glucose, raffinose, or galactose).
In a standard yeast assay, a single-use aliquot of cells was thawed on ice and diluted into CSM/glucose (5 mL). Cultures were grown for 8 hours at 30° C. This pre-growth enables the yeast to exit the thaw and begin to grow without expressing aSyn or ApoE4. After 8 hours, cell density (OD600) was determined and cultures diluted to an OD600 of 0.01 in CSM/raffinose for an overnight culture phase at 30° C. During this period, the active glucose repression of the GAL1 promoter was relieved; however, expression of the α-Syn/ApoE4 genes were not yet induced. After ˜16 hours of growth, cultures attain an OD600 of 0.4-0.8 and were ready to apply to assay plates containing compound.
Compound profiling assays were executed in clear-bottom 384 well plates. First, compound plates were thawed at room temperature for 45′, centrifuged at 1,000×g for 1 minute, and the foil removed. Clear 384 well assay plates were then filled with 15 μL of CSM/galactose. […] The pin tool was washed iteratively with both 50% DMSO and 100% ethanol between each assay plate. After delivering compound to each assay plate, the overnight CSM/raffinose aSyn or ApoE4 cultures were added at a 2X cell density (0.04 for aSyn and 0.08 for ApoE4) in CSM/galactose to achieve a final assay OD600 of 0.02 and 0.04 for aSyn and ApoE, respectively. The cultures (15 μL per well) were then dispensed to the compound -containing 384 well assay plates using an automated plate filler. Plates were incubated in a humidified 30° C. incubator for 40 or 24 hours for aSyn and ApoE4, respectively. The ODsoo of each assay plate was then read with a microplate reader (e.g., Perkin Elmer Envision).
The efficacy and potency of compounds were calculated according to the following. Raw data (OD600 values) were first background corrected to account for OD600 contributed by the plate and media itself. The efficacy (percent above DMSO, herein referred to as “Emax”) was calculated according to the equation: (Experimental well−DMSO control well)/(DMSO control well)*100. […] Normalized dose-response data was fit with a logistic regression curve using Spotfire (TIBCO), or similar curve-fitting software package. EC50 values were then reported along with EMax to provide both efficacy and potency measures for each analog and enable further compound design.

Row | SMILES | IC50 [1] [µM] | SCD1 % Max Inhibition [1] [%] | IC50 [2] [µM] | SCD5 % Max Inhibition [2] | IC50 [3] [µM] | OLE1 % Max Inhibition [3] | EC50 [4] [µM] | Emax [4] [%]
1 | CCOc1ccc(-c2noc(C3CCN(C(=O)C4CC(=O)N(c5ccccc5)C4)CC3)n2)nc1OC (stereo not shown) [Compound 108] | > 45 | 72.79 | > 45 | 64.66% | > 45 | 72.04% | 11.1 | 316
2 | COc1ccccc1-c1noc(C2CCN(C(=O)CNC(=O)c3ccccc3)CC2)n1 [compound 12] | > 45 | – | > 45 | – | > 45 | – | 16.2 | 43
3 | CCOc1cnc(-c2noc(C3CCN(C(=O)C4CC(=O)N(c5ccccc5)C4)CC3)n2)cc1OC (stereo not shown) [Compound 118] | > 45 | 93.37 | 27.5 | 32.21% | > 45 | 87.29% | 15.7 | 65
4 | Cc1ccc(-c2noc(C3CCN(C(=O)C4CC(=O)N(c5ccc(C)c(C)c5)C4)CC3)n2)cc1 (stereo not shown) [compound 2] | > 45 | – | > 45 | – | > 45 | – | 8.57 | 80
5 | Cn1c(=O)[nH]c2ccc(-c3noc(C4CCN(C(=O)C5CC(=O)N(c6ccccc6)C5)CC4)n3)cc21 (stereo not shown) [Compound 134] | > 45 | 107.77 | > 45 | 98.55% | > 45 | 93.94% | 14 | 357
6 | COc1ccc(-c2noc(C3CCN(C(=O)CNC(=O)C(C)C)CC3)n2)cc1OC [Compound 47] | > 45 | 73.30 | > 45 | 74.25% | > 45 | 109.20% | 16.5 | 88
7 | CCN1CCOc2cc(-c3noc(C4CCN(C(=O)CNC(=O)c5ccccc5)CC4)n3)ccc21 [Compound 110] | > 45 | 66.85 | > 45 | 65.07% | > 45 | 96.31% | 4.49 | 374
8 | COc1ccc(-c2noc(C3CCN(C(=O)c4ccc(C(C)C)cc4)CC3)n2)cc1OC [Compound 127] | > 45 | 66.46 | > 45 | 88.59% | > 45 | 99.27% | 7.42 | 349
9 | O=C(NCC(=O)N1CCC(c2nc(-c3ccc4c(c3)OC(F)(F)O4)no2)CC1)c1ccccc1 [Compound 109] | > 45 | 84.36 | > 45 | 89.75% | > 45 | 87.87% | 3.04 | 35
10 | COc1ccc(-c2noc(C3CCN(C(=O)C(C)(C)NC(=O)c4ccccc4)CC3)n2)cc1OC [Compound 29] | > 45 | 69.52 | > 45 | 74.10% | > 45 | 91.00% | 13.9 | 38
11 | Cc1nn(C)c2cc(-c3noc(C4CCN(C(=O)C5CC(=O)N(c6ccc(C#N)cc6)C5)CC4)n3)ccc12 (stereo not shown) [Compound 139] | > 45 | 87.50 | > 45 | 75.11% | > 45 | 25.30% | 0.021 | 437
12 | CCOc1ccc(-c2noc(C3CCN(C(=O)C(CO)N4Cc5ccccc5C4=O)CC3)n2)cc1OC (stereo not shown) [Compound 128] | > 45 | – | > 45 | 1.89% and 3.32% | > 45 | 81.43% and 60.60% | 0.252 | 306
13 | COc1ccc(-c2noc(C3CCN(C(=O)CNC(=O)N4CCCCC4)CC3)n2)cc1OC [Compound 143] | > 45 | 79.38 | > 45 | 96.06% | > 45 | 95.01% | 16.9 | 73
